Results reported in the supplement of paper PMC11451515.

Assays:
Conditions in all cases: 48 h
P12-Ichikawa [1] = assay: cell viability relative to DMSO control; higher = less cytotoxic
Method in brief: (§1)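 In 1536-well plates, 5 μl of leukemia cells were seeded per well: 500 cells/well for NOMO1 or SEM and 1000 cells/well for P12-Ichikawa. Each line had first been adapted for at least four passages in each medium. Library compounds in DMSO were pin-dosed at 11 threefold concentrations between 47 μM and 0.79 nM, and CellTiter-Glo One luminescence was read after 48 h at 37°C. Viability is a per-plate percentage relative to DMSO wells, with cell-free wells as background.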

NOMO1 [2] = assay: as above
Method in brief: as §1

P12-Ichikawa [3] = assay: AUC of viability dose-response curve (% viability x log10 dose units); higher = less sensitive
Method in brief: (§2)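 Library compounds in DMSO were applied for 48 h at 37°C at 11 threefold doses (47 μM to 0.79 nM) to medium-adapted leukemia cells in 1536-well plates holding 500 or 1000 cells/well. Luminescence from CellTiter-Glo One was normalised plate by plate against DMSO and cell-free wells. Area under the curve came from trapezoidal integration of a log-logistic fit, after scaling curves that rose above full viability and discarding those that failed quality control. The fit had four parameters and used log10 doses.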

NOMO1 [4] = assay: as above
Method in brief: as §2

SEM cells = assay: as above
Method in brief: as §2

COc1c(N2C[C@@H]3CCCN[C@@H]3C2)c(F)cc2c(=O)c(C(=O)O)cn(C3CC3)c12.Cl.O
cell viability [%]
Conditions | HPLM + 10% dialyzed FBS | RPMI 5 mM glucose + 10% FBS | RPMI 5 mM glucose + 10% dialyzed FBS
NOMO1 [2], 0.000781 µM | 118 | 92.2 | 105
NOMO1 [2], 0.00234 µM | 115 | 94.1 | 98.5
NOMO1 [2], 0.00702 µM | 103 | 103 | 108
NOMO1 [2], 0.0211 µM | 104 | 105 | 106
NOMO1 [2], 0.0632 µM | 100 | 113 | 99.1
NOMO1 [2], 0.19 µM | 87.2 | 93.8 | 87.3
NOMO1 [2], 0.569 µM | 82.6 | 95 | 96
NOMO1 [2], 1.71 µM | 101 | 93.7 | 98.4
NOMO1 [2], 5.12 µM | 92.4 | 97.6 | 87.4
NOMO1 [2], 15.4 µM | 80.5 | 85.9 | 86.3
NOMO1 [2], 46.1 µM | 87.5 | 85.5 | 85.6
P12-Ichikawa [1], 0.000781 µM | 98.4 | 116 | 98.7
P12-Ichikawa [1], 0.00234 µM | 114 | 112 | 99.5
P12-Ichikawa [1], 0.00702 µM | 107 | 109 | 107
P12-Ichikawa [1], 0.0211 µM | 109 | 112 | 109
P12-Ichikawa [1], 0.0632 µM | 103 | 106 | 98.6
P12-Ichikawa [1], 0.19 µM | 114 | 107 | 97
P12-Ichikawa [1], 0.569 µM | 102 | 91.9 | 91
P12-Ichikawa [1], 1.71 µM | 99.4 | 92.2 | 88.5
P12-Ichikawa [1], 5.12 µM | 78.9 | 53.8 | 53.4
P12-Ichikawa [1], 15.4 µM | 63 | 12.9 | 17.5
P12-Ichikawa [1], 46.1 µM | 70.6 | 54 | 42.3

AUC of viability dose-response curve
Conditions | HPLM + 10% dialyzed FBS | RPMI 5 mM glucose + 10% FBS | RPMI 5 mM glucose + 10% dialyzed FBS
NOMO1 [4] | 390 | 456 | 437
P12-Ichikawa [3] | 434 | 394 | 399

COc1nc(N)nc2c1ncn2[C@@H]1O[C@H](CO)[C@@H](O)[C@@H]1O
AUC of viability dose-response curve
Conditions | NOMO1 [4] | P12-Ichikawa [3] | SEM cells
HPLM + 10% dialyzed FBS | 458 | 455 | 472
RPMI 5 mM glucose + 10% FBS | 444 | 462 | 449
RPMI 5 mM glucose + 10% dialyzed FBS | 448 | 456 | 463

COC1=CC(=CC(=C1)C2=CC=C3N=CC\4=C(N(C(=O)\C=C4)C5=CC(=C(C=C5)N6CCNCC6)C(F)(F)F)C3=C2)OC
AUC of viability dose-response curve
Conditions | NOMO1 [4] | P12-Ichikawa [3] | SEM cells
HPLM + 10% dialyzed FBS | 387 | 440 | 406
RPMI 5 mM glucose + 10% FBS | 456 | 407 | 414
RPMI 5 mM glucose + 10% dialyzed FBS | 436 | 412 | 413

O=C1NC(=O)/C(=C/c2ccc3c(c2)OC(F)(F)O3)S1
AUC of viability dose-response curve
Conditions | NOMO1 [4] | P12-Ichikawa [3] | SEM cells
HPLM + 10% dialyzed FBS | 465 | 462 | 464
RPMI 5 mM glucose + 10% FBS | 446 | 463 | 466
RPMI 5 mM glucose + 10% dialyzed FBS | 457 | 440 | 466

C[C@H](c1ccc(F)cc1CCCC(=O)O)N(c1cc(F)ccc1F)[S+](=O)([O-])c1ccc(Cl)cc1
AUC of viability dose-response curve
Conditions | NOMO1 [4] | P12-Ichikawa [3] | SEM cells
HPLM + 10% dialyzed FBS | 452 | 454 | 462
RPMI 5 mM glucose + 10% FBS | 455 | 449 | 465
RPMI 5 mM glucose + 10% dialyzed FBS | 450 | 447 | 461

F\C1=C\NC(=O)NC1=O
AUC of viability dose-response curve
Conditions | NOMO1 [4] | P12-Ichikawa [3] | SEM cells
HPLM + 10% dialyzed FBS | 414 | 405 | 407
RPMI 5 mM glucose + 10% FBS | 437 | 435 | 410
RPMI 5 mM glucose + 10% dialyzed FBS | 422 | 413 | 412

CCc1cnn2c(NCc3ccc[n+]([O-])c3)cc(N3CCCC[C@H]3CCO)nc12
AUC of viability dose-response curve
Conditions | NOMO1 [4] | P12-Ichikawa [3] | SEM cells
HPLM + 10% dialyzed FBS | 224 | 236 | 206
RPMI 5 mM glucose + 10% FBS | 231 | 230 | 193
RPMI 5 mM glucose + 10% dialyzed FBS | 223 | 234 | 198

C[C@@H]1C[C@@H]([C@H](O)CC2CC(=O)NC(=O)C2)C(=O)[C@@H](C)C1
AUC of viability dose-response curve
Conditions | NOMO1 [4] | P12-Ichikawa [3] | SEM cells
HPLM + 10% dialyzed FBS | 315 | 312 | 279
RPMI 5 mM glucose + 10% FBS | 337 | 288 | 268
RPMI 5 mM glucose + 10% dialyzed FBS | 323 | 299 | 295

c1ccc2c(CCNc3ccc(Nc4ccncc4)cc3)c[nH]c2c1
AUC of viability dose-response curve
Conditions | NOMO1 [4] | P12-Ichikawa [3] | SEM cells
HPLM + 10% dialyzed FBS | 426 | 444 | 312
RPMI 5 mM glucose + 10% FBS | 430 | 429 | 282
RPMI 5 mM glucose + 10% dialyzed FBS | 425 | 418 | 308

N=C1S/C(=C\c2ccc(-c3ccc4c(c3)C(=O)NC4=O)o2)C(=O)N1c1ccc(Br)cc1
AUC of viability dose-response curve
Conditions | NOMO1 [4] | P12-Ichikawa [3] | SEM cells
HPLM + 10% dialyzed FBS | 444 | 452 | 453
RPMI 5 mM glucose + 10% FBS | 464 | 443 | 365
RPMI 5 mM glucose + 10% dialyzed FBS | 459 | 448 | 458
